ChEMBL document CHEMBL1806354 (J Med Chem, 2011)

Tests used:
Type in all cases: cell-based
D(1A) dopamine receptor [1] = molecular target: T1, D(1A) dopamine receptor (Homo sapiens, UniProt P21728); test: Displacement of [3H]SCH23390 from dopamine D1 receptor expressed in HEK293 cells at 10 uM after 50 mins by beta liquid scintillation counter
D(2) dopamine receptor [2] = molecular target: T2, D(2) dopamine receptor (Homo sapiens, UniProt P14416); test: Displacement of [3H]spiperone from dopamine D2 receptor expressed in HEK293 cells after 50 mins by beta liquid scintillation counter
[3] = molecular target: T3, 5-hydroxytryptamine receptor 1A (Homo sapiens, UniProt P08908); test: Displacement of [3H]-8-OH-DPAT from 5-HT1A receptor expressed in CHO cells after 50 mins by beta liquid scintillation counter
T3 sequence (P08908 whole entry): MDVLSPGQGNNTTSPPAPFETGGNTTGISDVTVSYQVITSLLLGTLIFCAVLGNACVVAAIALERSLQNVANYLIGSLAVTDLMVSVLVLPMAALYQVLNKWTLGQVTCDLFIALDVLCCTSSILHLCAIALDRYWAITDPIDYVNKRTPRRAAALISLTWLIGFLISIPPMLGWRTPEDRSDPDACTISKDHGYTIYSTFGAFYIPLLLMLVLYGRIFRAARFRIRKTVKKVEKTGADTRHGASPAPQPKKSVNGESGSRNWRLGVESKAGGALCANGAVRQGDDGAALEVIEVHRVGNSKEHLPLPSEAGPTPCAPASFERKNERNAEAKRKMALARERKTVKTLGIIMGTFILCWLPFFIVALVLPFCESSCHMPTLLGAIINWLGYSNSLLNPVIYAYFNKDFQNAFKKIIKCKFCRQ

[4] = molecular target: T4, 5-hydroxytryptamine receptor 2A (Homo sapiens, UniProt P28223); test: Displacement of [3H]ketanserin from 5-HT2A receptor expressed in CHO cells at 10 uM after 50 mins by beta liquid scintillation counter
D(2) dopamine receptor [5] = molecular target: T2, D(2) dopamine receptor; test: Displacement of [3H]spiperone from dopamine D2 receptor expressed in HEK293 cells at 10 uM after 50 mins by beta liquid scintillation counter
D(1A) dopamine receptor [6] = molecular target: T1, D(1A) dopamine receptor; test: Displacement of [3H]SCH23390 from dopamine D1 receptor expressed in HEK293 cells after 50 mins by beta liquid scintillation counter
[7] = molecular target: T4, 5-hydroxytryptamine receptor 2A; test: Displacement of [3H]ketanserin from 5-HT2A receptor expressed in CHO cells after 50 mins by beta liquid scintillation counter

T4 sequence (P28223 whole entry): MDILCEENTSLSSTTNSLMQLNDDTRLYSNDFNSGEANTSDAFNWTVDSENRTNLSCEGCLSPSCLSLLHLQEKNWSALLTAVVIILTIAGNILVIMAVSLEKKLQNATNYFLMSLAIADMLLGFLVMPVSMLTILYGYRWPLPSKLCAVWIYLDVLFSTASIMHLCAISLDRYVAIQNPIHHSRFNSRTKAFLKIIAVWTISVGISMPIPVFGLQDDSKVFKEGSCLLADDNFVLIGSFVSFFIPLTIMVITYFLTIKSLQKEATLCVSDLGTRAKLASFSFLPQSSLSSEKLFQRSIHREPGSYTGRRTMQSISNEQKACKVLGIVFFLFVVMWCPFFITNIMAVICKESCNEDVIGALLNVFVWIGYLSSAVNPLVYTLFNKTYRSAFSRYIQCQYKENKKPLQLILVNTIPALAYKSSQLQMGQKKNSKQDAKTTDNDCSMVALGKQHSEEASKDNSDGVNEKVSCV
T2 sequence (P14416 whole entry): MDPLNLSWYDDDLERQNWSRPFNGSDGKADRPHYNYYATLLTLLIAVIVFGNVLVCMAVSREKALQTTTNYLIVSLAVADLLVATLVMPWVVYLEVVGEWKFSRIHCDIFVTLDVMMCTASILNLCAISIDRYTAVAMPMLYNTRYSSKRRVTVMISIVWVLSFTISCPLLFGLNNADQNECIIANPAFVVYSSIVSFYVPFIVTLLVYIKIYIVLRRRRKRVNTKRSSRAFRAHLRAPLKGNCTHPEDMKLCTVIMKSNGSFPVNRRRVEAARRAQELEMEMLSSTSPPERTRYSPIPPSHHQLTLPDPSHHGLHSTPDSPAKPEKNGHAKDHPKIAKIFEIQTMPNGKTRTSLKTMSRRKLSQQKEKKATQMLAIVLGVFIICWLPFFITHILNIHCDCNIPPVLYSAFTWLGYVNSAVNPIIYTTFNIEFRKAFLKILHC
T1 sequence (P21728 whole entry): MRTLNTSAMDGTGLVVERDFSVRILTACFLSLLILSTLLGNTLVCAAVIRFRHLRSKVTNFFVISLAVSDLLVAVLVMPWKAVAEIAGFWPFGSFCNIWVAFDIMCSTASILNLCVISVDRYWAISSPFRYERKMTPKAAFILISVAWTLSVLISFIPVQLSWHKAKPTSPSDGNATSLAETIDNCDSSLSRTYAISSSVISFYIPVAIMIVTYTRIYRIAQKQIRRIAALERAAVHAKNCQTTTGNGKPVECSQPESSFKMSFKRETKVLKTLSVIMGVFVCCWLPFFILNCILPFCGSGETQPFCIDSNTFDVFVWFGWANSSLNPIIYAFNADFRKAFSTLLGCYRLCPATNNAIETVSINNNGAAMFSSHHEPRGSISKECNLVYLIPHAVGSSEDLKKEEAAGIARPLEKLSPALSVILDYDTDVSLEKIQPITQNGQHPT

With `CCCN1CCc2cccc3c2[C@H]1Cc1cccc(OC(=O)CCCC[C@@H]2CCSS2)c1-3` the inhibition (D(1A) dopamine receptor [1]) was 69.6%, the Ki (D(2) dopamine receptor [2]) was 296 nM and the Ki [3] was 45 nM.

Work on `CCCNC(=O)Oc1cccc2c1-c1cccc3c1[C@@H](C2)N(CCC)CC3` yielded an inhibition (D(1A) dopamine receptor [1]) of 56.3%, an inhibition [4] of 16% and an inhibition (D(2) dopamine receptor [5]) of 50.9%. The Ki [3] was 87 nM.

`CCCN1CCc2cccc3c2C1Cc1cccc(OC(=O)CCCCC2CCSS2)c1-3` (racemic) was tested, and the inhibition (D(1A) dopamine receptor [1]) was 62.7%, the inhibition [4] was 14.7% and the inhibition (D(2) dopamine receptor [5]) was 55.2%. For the same compound, the Ki [3] was 137 nM.

`CCCCNC(=O)Oc1cccc2c1-c1cccc3c1C(C2)N(CCC)CC3` (racemic) showed an inhibition (D(1A) dopamine receptor [1]) of 36.5%, an inhibition [4] of 37.4% and an inhibition (D(2) dopamine receptor [5]) of 53.2%. For the same compound, the Ki [3] was 385 nM.

`CCCN1CCc2cccc3c2C1Cc1cccc(O)c1-3` (racemic) gave an inhibition (D(1A) dopamine receptor [1]) of 55.9%, an inhibition [4] of 14.1% and a Ki [3] of 66 nM.

In the case of `CCCN1CCc2cccc3c2C1Cc1cccc(CNC(=O)NCC)c1-3` (racemic), the inhibition (D(1A) dopamine receptor [1]) is reported as 35.4% and the inhibition (D(2) dopamine receptor [5]) is reported as 15.7%.

For `CCCN1CCc2cccc3c2[C@H]1Cc1cccc(N)c1-3`, the inhibition (D(1A) dopamine receptor [1]) was 57.1%, the inhibition [4] was 49.4% and the Ki (D(2) dopamine receptor [2]) was 352 nM. It also gave a Ki [3] of 276 nM.

Work on `CCCN1CCc2cccc3c2C1Cc1cccc(OC(=O)NCc2ccccc2)c1-3` (racemic) yielded a Ki (D(1A) dopamine receptor [6]) of 4200 nM, a Ki (D(2) dopamine receptor [2]) of 4300 nM and a Ki [3] of 259 nM. It also gave a Ki [7] of 2000 nM.

Compound `CCCN1CCc2cccc3c2C1Cc1cccc(CNC(=S)CCCCC2CCSS2)c1-3` (racemic) has an inhibition (D(1A) dopamine receptor [1]) of 11.4% and an inhibition (D(2) dopamine receptor [5]) of 3.1%.

`CCCN1CCc2cccc3c2C1Cc1cccc(OC(=O)NCC)c1-3` (racemic) was tested, and the inhibition (D(1A) dopamine receptor [1]) was 46.1%, the inhibition [4] was 19.8% and the inhibition (D(2) dopamine receptor [5]) was 56.7%. The Ki [3] was 218 nM.

In the case of `CCCN1CCc2cccc3c2C1Cc1cccc(OC(=O)Nc2cccc4ccccc24)c1-3` (stereo not given), the inhibition (D(1A) dopamine receptor [1]) is reported as 48%, the inhibition [4] is reported as 21.7% and the Ki (D(2) dopamine receptor [2]) is reported as 2000 nM. It also gave a Ki [3] of 124 nM.

`CCCN1CCc2cccc3c2C1Cc1cccc(OC(=O)NC(C)(C)C)c1-3` (racemic) was tested, and the inhibition (D(1A) dopamine receptor [1]) was 44.2%, the inhibition [4] was 20% and the Ki (D(2) dopamine receptor [2]) was 2800 nM. It also gave a Ki [3] of 217 nM.

Work on `CCCN1CCc2cccc3c2[C@H]1Cc1cccc(OC(=O)CCCC[C@H]2CCSS2)c1-3` yielded an inhibition (D(1A) dopamine receptor [1]) of 64.8%, a Ki (D(2) dopamine receptor [2]) of 342 nM and a Ki [3] of 35 nM.

Work on `CCCN1CCc2cccc3c2[C@H]1Cc1cccc(NC(=O)CCCCC2CCSS2)c1-3` (stereo not given in full) yielded an inhibition (D(1A) dopamine receptor [1]) of 27.2%, an inhibition [4] of 36.9% and an inhibition (D(2) dopamine receptor [5]) of 33.1%. It also gave a Ki [3] of 249 nM.

For `CCCC(=O)Oc1cccc2c1-c1cccc3c1[C@@H](C2)N(CCC)CC3`, the inhibition (D(1A) dopamine receptor [1]) was 63.2%, the inhibition [4] was 68% and the Ki (D(2) dopamine receptor [2]) was 55.5 nM. The Ki [3] was 11.9 nM.

With `CCCN1CCc2cccc3c2[C@H]1Cc1cccc(OC(=O)NC(C)(C)C)c1-3` the inhibition (D(1A) dopamine receptor [1]) was 70.2%, the inhibition [4] was 29.2% and the Ki (D(2) dopamine receptor [2]) was 871 nM. The Ki [3] was 96 nM.

`CCCN1CCc2cccc3c2[C@H]1Cc1cccc(O)c1-3` was tested, and the inhibition (D(1A) dopamine receptor [1]) was 63.2% and the inhibition [4] was 63%.

With `CCCNC(=O)Oc1cccc2c1-c1cccc3c1C(C2)N(CCC)CC3` (racemic) the inhibition (D(1A) dopamine receptor [1]) was 26.2%, the inhibition [4] was 30.1% and the inhibition (D(2) dopamine receptor [5]) was 52.7%. For the same compound, the Ki [3] was 258 nM.

Work on `CCCCNC(=O)Oc1cccc2c1-c1cccc3c1[C@@H](C2)N(CCC)CC3` yielded an inhibition (D(1A) dopamine receptor [1]) of 53.6%, an inhibition [4] of 34.9% and an inhibition (D(2) dopamine receptor [5]) of 40.9%. It also gave a Ki [3] of 89 nM.

`CCCN1CCc2cccc3c2[C@H]1Cc1cccc(OC(=O)NCC)c1-3` was tested, and the inhibition (D(1A) dopamine receptor [1]) was 54.6%, the inhibition [4] was 14.5% and the inhibition (D(2) dopamine receptor [5]) was 44.3%. It also gave a Ki [3] of 94 nM.

`CCCN1CCc2cccc3c2C1Cc1cccc(-c2noc(CCCCC4CCSS4)n2)c1-3` (racemic) gave an inhibition (D(1A) dopamine receptor [1]) of 57% and an inhibition (D(2) dopamine receptor [5]) of 19.5%.

`CCCC(=O)Nc1cccc2c1-c1cccc3c1[C@@H](C2)N(CCC)CC3` showed an inhibition (D(1A) dopamine receptor [1]) of 16.1%, an inhibition [4] of 16.6% and an inhibition (D(2) dopamine receptor [5]) of 13.5%. The Ki [3] was 380 nM.

In the case of `CCCN1CCc2cccc3c2C1Cc1cccc(CNC(=O)CCCCC2CCSS2)c1-3` (racemic), the inhibition (D(1A) dopamine receptor [1]) is reported as 32.4% and the inhibition (D(2) dopamine receptor [5]) is reported as 9.6%.

Compound `CCCN1CCc2cccc3c2[C@H]1Cc1cccc(OC(=O)NCc2ccccc2)c1-3` has an inhibition [4] of 76.6%, a Ki (D(1A) dopamine receptor [6]) of 2400 nM and a Ki (D(2) dopamine receptor [2]) of 2200 nM. The Ki [3] was 90 nM.

`CCCN1CCc2cccc3c2C1Cc1cccc(OC(=O)CSc2ccccc2)c1-3` (racemic) showed an inhibition (D(1A) dopamine receptor [1]) of 67.1% and a Ki (D(2) dopamine receptor [2]) of 851 nM.
